{"source": "patent US12708601B2", "about": "“Mangosteen pericarp extract and process for its preparation thereof” (JUNHONG BIOTECHNOLOGY CO., LTD., priority 2020, dated 2026)", "tested_on": "B16F10 melanoma cells", "assay": "Cell viability assay (MTT) in B16F10 cells treated with α-MSH with or without aqua choice", "assay_type": "cell-based, mouse", "details": "100 nM, 24 hours of incubation", "description": "The mouse B16F10 melanoma cells were purchased from Bioresource Collection and Research Center (BCRC, Hsinchu, Taiwan) and cultured using Dulbecco's Modified Eagle Medium (DMEM, Gibco, MA, USA) supplemented with 10% fetal bovine serum and 1% antibiotics (100 units/mL penicillin, […], 0.25 μg/mL amphotericin) in a humidified atmosphere of 5% CO2 at 37° C. The control group was untreated with alpha-melanocyte-stimulating hormone (α-MSH) and aquachoice; The different treatment groups were all treated with α-MSH and different doses aquachoice.\nCells were seeded at a density of […] in 96-well plate for 24 h and then treated with aqua choice at different concentrations for 24 and 48 h. At the end of the treatment, the medium was removed and 100 μL 3-(4,5-Dimethylthiazol-2-yl)-2,5-Diphenyltetrazolium bromide (MTT) solution (Sigma-Aldrich, USA) was treated. MTT reagent was cleanly removed after incubation in a 37° C. incubator for 3 hours, and then 100 μL of DMSO per well was added to dissolve all of the formazan generated in the wells. The result was measured by absorbance at 570 nm with an ELISA reader.", "data": [{"substance": "alpha-melanocyte-stimulating hormone [α-MSH]", "values": [{"measurement": "increase in cell viability", "value": "~ 1.55 fold"}]}]}
